Reference: patent US12054509B2, “Antimicrobial compounds, compositions, and uses thereof” (Lakewood Amedex, Inc., priority 2017, dated 2024)

What was measured:
bacterial strains = experiment: MIC at pH 3.5 in human and mouse urine; assay type: cell-based
Excerpt: Bacterial strains evaluated in this study include Escherichia coli, Klebsiella spp, Serratia marcescens, Proteus mirabilis/vulgaris, Citrobacter spp, Providencia spp, Morganella morganii, Pseudomonas aeruginosa, Staphylococcus aureus (MRSA only), and Enterococcus faecalis. […]

[1] = test system: Escherichia coli (strain CFT073, TPPS 1041); experiment: Urinary tract infection model in BALB/c mice, confirmatory efficacy (Example 11); assay type: in vivo; conditions: for bacterial burden (bladder): 20 minutes post-treatment
Excerpt: Female BALB/c mice (20-22 g) ordered from Envigo are acclimated to housing conditions and handled in accordance with Animal Use Protocol (AUP) number TP-08. Animals are fed irradiated Teklad Global 29 18 Rodent Diet and water ad libitum. Mice are housed 6/cage in static cages with irradiated ⅛″ Teklad corn cobbedding 7902 inside bioBubble® clean rooms that provide H.E.P.A filtered air into the bubble environment at 100 complete air changes per hour. The environment is controlled to a temperature range of 74°±4° F. and a humidity range of 30-70%. All procedures carried out in this experiment are conducted in compliance with the laws, regulations, and guidelines of the National Institutes of Health and with the approval of the TransPharm Preclinical Solutions Animal Care and Use Committee.
A clinical isolate of Escherichia coli (strain CFT073, TPPS 1041) are procured from the University of Michigan.
The organism is grown overnight at 37° C. in ambient atmosphere on trypticase soy agar plates supplemented with 5% sheep blood cells. The culture is aseptically swabbed and transferred to tubes of trypticase soy broth. The optical density is determined at 600 nm. The culture is diluted to provide an inoculum of approximately 7.5 login CFU per mouse in a volume of 30 μL. Instillation of the bacterial challenge constituted time 0 hour for the study. Inoculum counts are estimated before inoculation by optical density and confirmed after inoculation by dilution and back counts.
One hour prior to bacterial challenge, water is removed from animal cages. On Day 0 at 0 hours, mice are anesthetized using isoflurane and urine is expressed from the bladder by applying gentle pressure to the abdomen with the thumb. Mice are infected with bacteria via transurethral injection in a volume of 30 μL. Water is returned to the cages immediately following the challenge. Challenge is performed in a BL2 surgical suite.
Nu-8 (Test article) is prepared immediately before each dosing. Nu-8 is dissolved in sterile saline and adjusted to pH 3.5 with phosphoric acid. At 23 hours post-challenge, water is removed from animal cages. One hour later, mice are anesthetized using isoflurane and residual urine is expressed from the bladder. Mice are treated with test article or controls via transurethral dosing in a volume of 30 μL according to TABLE 9 (showing Animal Challenge and Treatment Schedule). All treatments are administered in a BSL2 surgical suite.
Immediately following treatment administration, the urethral opening is occluded using Locktite gel superglue. One drop of glue is placed at the urethral opening and the opening is held together for 5-10 seconds using tissue forceps to ensure the urethral opening is occluded and the adhesive is dry. Animals remained under anesthetic following urethral occlusion. […]

[2] = test system: Streptococcus pneumoniae (PRSP); experiment: MIC at pH 3.5 (CLSI, Mueller-Hinton broth); assay type: cell-based
Serratia marcescens = experiment: MIC at pH 3.5 (CLSI, Mueller-Hinton broth); assay type: cell-based; conditions: 5 isolates
Protocol: Bacterial strains evaluated in this study include Escherichia coli, Klebsiella spp, Serratia marcescens, Proteus mirabilis/vulgaris, Citrobacter spp, Providencia spp, Morganella morganii, Pseudomonas aeruginosa, Staphylococcus aureus (MRSA only), and Enterococcus faecalis. Nu-8 test solutions are adjusted to pH 3.5 with citric acid, and MIC is evaluated per the CLSI methods in Mueller-Hinton broth supplemented accordingly to facilitate growth of specific strains.

[3] = test system: wild type E. coli (ATCC 25922); experiment: Bacterial cytological profiling at pH 4, 5.5, 7 (Example 8), E. coli; assay type: cell-based; conditions: pH 5.5 and 7
Protocol: This bacterial cytological profiling (BCP) investigation uses methods and materials described previously by Nonejuie, P., Burkart, M., Poglianoa, K., Pogiano, J. (2013). Bacterial cytological profiling rapidly identifies the cellular pathways targeted by antibacterial molecules. Proc. Natl. Acad. Sci. U.S.A. 110(40):16169-16174. doi: 10.1073/pnas.1311066110.
For viable cell counts, cells are grown to OD600≈0.4 and diluted 1:1 into buffered or unbuffered media containing various compound concentrations. Samples are then collected and serially diluted (1:10) on a 96 well plate. Five microliters from each well are spotted on LB plates, incubated at 30° C., and viable cells are counted the next day.
Samples are collected at 10, 30, 120, and 240 min of exposure for viable cell count and imaging. For imaging, E. coli and S. aureus 200 μL of treated cells per time point are stained with 0.8 μg/mL FM4-64, 1.5 μg/mL DAPI, and 0.4 μM SYTOXGreen (Molecular Probes/Invitrogen). P. aeruginosa samples are stained 0.4 μM SYTOX Green, 28 μg/mL DAN, and 1 μg/mL FM 4-64. Cells are transferred to an agarose pad (20% LB, 1% agarose) for imaging.
For Nu-3 and Nu-8 stocks (at pH 4, 5.5 and 7), stock concentration is 500 mg/mL. For pH 4, the stocks are prepared by dissolving Nu-3 in 25 mM citrate buffer and Nu-8 in 350 mM citric acid. For pH 5.5, the stocks are prepared by dissolving Nu-3 in 25 mM citric-phosphate and Nu-8 in 25 mM critic. For pH 7, the stocks are prepared by dissolving Nu-3 and Nu-8 in 25 mM Sorensen phosphate buffer. 2×LB (lysogeny broth) solutions are prepared with 50 mM citrate buffer for pH 4, 50 mM citrate-phosphate buffer for pH 5.5, and 50 mM Sorensen phosphate buffer for pH 7.

CCCCOP(=O)(O)OC[C@H]1O[C@@H](n2ccc(N)nc2=O)C[C@@H]1OP(=O)(O)OCCCC [Nu-8, sodium ((2R,3S,5R)-5-(4-amino-2-oxopyrimidin-1(2H)-yl)-3-((butoxyoxidophosphor-yl)oxy)tetrahydrofuran-2-yl)methyl butyl phosphate]
MICs in human and mouse urine (bacterial strains): comparable to those of Nu-8 in Mueller Hinton broth
bacterial burden (bladder) ([1]; 205 mg/kg pH 3.5 transurethral): 6.5 log 10
bacterial burden (bladder) ([1]; 410 mg/kg pH 3.5 transurethral): 5.0 log 10
average bladder CFU burden ([1]; 820 mg/kg pH 3.5 transurethral, 10 minutes post-treatment): 6.3 log 10
bacterial burden (bladder) ([1]; 820 mg/kg pH 3.5 transurethral): 5.4 log 10
MIC [2]: 9.38 to 18.8 mg/mL
MIC (Serratia marcescens): 37.5 to 75 mg/mL
effect on cell permeability, viability and growth [3]: alters E. coli cell permeability and reduces cell viability and growth
